# Reference: publication PMC5234776, “Study of the Antimicrobial Activity of Tilapia Piscidin 3 (TP3) and TP4 and Their Effects on Immune Functions in Hybrid Tilapia (Oreochromis spp.)” (PLoS ONE, 2017)
# Like-named read-outs stand apart in the source and are kept apart here.
# Legend:
# Type in all cases: cell-based, Vibrio vulnificus
# V. vulnificus [1] = test: MIC, broth microdilution (NCCLS); details: 28°C
# Protocol: (§1) We determined the MICs of TP3, TP4, kanamycin, and ampicillin against V. vulnificus using a broth microdilution method in accordance with NCCLS guidelines. To measure the killing efficiencies of TP3 and TP4 against V. vulnificus, we prepared TP3 or TP4 solutions at MIC concentrations of 0.5×, 1×, and 2× and these solutions with equal volumes of V. vulnificus (1×10^6 CFU/ml) to each well of a 96-well plate. The plates were incubated at 28°C for 0, 60, 120, 180, 360, 540, 720, or 1440 minutes, and after the incubation period, 50 μL of each bacterial solution were plated on a TCBS plate to obtain viable cell counts. Broth grown in the absence of peptides was used as a negative control. The results were determined using triplicate independent experiments.
# V. vulnificus [2] = test: Synergy of TP3 or TP4 with ampicillin or kanamycin; details: V. vulnificus 5×10^3 CFU/ml, 28°C, 720 minutes, 600-nm absorbance
# Protocol: We used the co-treatment method to test combinations of TP3 or TP4 with ampicillin or kanamycin to identify synergistic effects. […] The plates were incubated at 28°C for 720 minutes, and after the incubation period, the concentrations of the bacterial solutions were detected using a spectrometer (600-nm absorbance).
# V. vulnificus [3] = test: microbe, parasite or virus in culture; details: V. vulnificus
# Protocol: as §1
# First, we determined the minimum MICs and minimum bactericidal concentrations (MBCs) of TP3 or TP4 against V. vulnificus.
# V. vulnificus [4] = test: microbe, parasite or virus in culture
# Protocol: To understand the effects of pH on TP3 or TP4, the reagents were dissolved in ddH2O, 1 M HCl or 1 M NaOH to obtain solutions with different pH values. For the temperature-dependent functional study, the TP3 or TP4 was added to a solution in a water bath (Basic life, model BL3002, Taiwan) and incubated for 60 minutes at different temperatures (40, 60, 80, or 100°C). To evaluate the effects of TP3 and TP4 on pepsin and trypsin function, each peptide was incubated for 10 or 30 minutes with different concentrations of pepsin or trypsin (0.1, 1, or 10 μg/ml), […], according to a previously described MIC experimental protocol.
# V. vulnificus [5] = test: microbe, parasite or virus in culture; remark: listed apart in the source
# Protocol: To understand the effects of pH on TP3 or TP4, the reagents were dissolved in ddH2O, 1 M HCl or 1 M NaOH to obtain solutions with different pH values. For the temperature-dependent functional study, the TP3 or TP4 was added to a solution in a water bath (Basic life, model BL3002, Taiwan) and incubated for 60 minutes at different temperatures (40, 60, 80, or 100°C). To evaluate the effects of TP3 and TP4 on pepsin and trypsin function, each peptide was incubated for 10 or 30 minutes with different concentrations of pepsin or trypsin (0.1, 1, or 10 μg/ml), and we determined the MIC values after incubating these solutions with cells at 28°C for 720 minutes, according to a previously described MIC experimental protocol.
# V. vulnificus [6] = test: Membrane perturbation, NPN uptake; details: 1×10^6 CFU/ml, 30 minutes, 40 μmol/L NPN; kanamycin: slight increase only
# Protocol: We used previously reported methods for the membrane perturbation assay. Briefly, a single colony of V. vulnificus was cultured in TSB medium for 480 minutes at 28°C, and the adjusted culture (1×10^6 CFU/ml) was aliquoted into different tubes with or without TP4 or TP3. After incubating the cells for 30 minutes, we added 40 μmol/L 1-N-phenylnaphthylamine (NPN) and continued to incubate the cells. Tubes containing PBS with NPN and bacterial cells with NPN served as controls. The NPN fluorescence intensity was detected using a fluorescence ELISA reader. All experiments were performed in triplicate, and the results are expressed as means with standard errors (SE).
# [7] = agent incubated 60 minutes at 60°C
# [8] = agent incubated 60 minutes at 80°C
# [9] = agent incubated 60 minutes at 100°C
# [10] = agent incubated 60 minutes at 40°C
# [11] = agent dissolved in pH = 4 solution
# [12] = agent dissolved in pH = 6 solution
# [13] = agent dissolved in pH = 8 solution
# [14] = agent dissolved in pH = 10 solution
# [15] = agent dissolved in pH = 12 solution
compound,measurement,setting,value
"CC1(C)S[C@@H]2[C@H](NC(=O)[C@H](N)c3ccccc3)C(=O)N2[C@H]1C(=O)O [ampicillin, reference compound]",MIC,V. vulnificus [1],3.9 µg/mL
same,MIC,"V. vulnificus [1]; Vibrio vulnificus, read-out: MIC",3.91 µg/mL
same,change of the MIC of the antibiotic in combination with TP3 or TP4,V. vulnificus [2],halved
same,MBC,V. vulnificus [3],3.9 µg/mL
same,MBC,"V. vulnificus [3]; Vibrio vulnificus, read-out: MBC",3.91 µg/mL
same,MBC,"V. vulnificus [4]; Vibrio vulnificus, 1 h, agent incubated 60 minutes at 40°C, read-out: MBC",3.9 µg/mL
same,MIC,"V. vulnificus [4]; Vibrio vulnificus, 1 h, agent incubated 60 minutes at 40°C, read-out: MIC",3.9 µg/mL
same,MBC,"V. vulnificus [4]; Vibrio vulnificus, RT, read-out: MBC",3.9 µg/mL
same,MIC,"V. vulnificus [4]; Vibrio vulnificus, RT, read-out: MIC",3.9 µg/mL
same,MBC,V. vulnificus [4]; [7],3.9 µg/mL
same,MIC,V. vulnificus [4]; [7],3.9 µg/mL
same,MBC,V. vulnificus [4]; [8],3.9 µg/mL
same,MIC,V. vulnificus [4]; [8],3.9 µg/mL
same,MBC,V. vulnificus [4]; [9],3.9 µg/mL
same,MIC,V. vulnificus [4]; [9],3.9 µg/mL
same,thermostability by MIC and MBC values,"V. vulnificus [4]; from 40°C to 100°C, in words",very stable
same,MBC,"V. vulnificus [5]; Vibrio vulnificus, agent dissolved in pH = 4 solution, read-out: MBC",3.9 µg/mL
same,MIC,"V. vulnificus [5]; Vibrio vulnificus, agent dissolved in pH = 4 solution, read-out: MIC",3.9 µg/mL
same,MBC,"V. vulnificus [5]; Vibrio vulnificus, agent dissolved in pH = 6 solution, read-out: MBC",3.9 µg/mL
same,MIC,"V. vulnificus [5]; Vibrio vulnificus, agent dissolved in pH = 6 solution, read-out: MIC",3.9 µg/mL
same,MBC,"V. vulnificus [5]; Vibrio vulnificus, agent dissolved in pH = 8 solution, read-out: MBC",3.9 µg/mL
same,MIC,"V. vulnificus [5]; Vibrio vulnificus, agent dissolved in pH = 8 solution, read-out: MIC",3.9 µg/mL
same,MBC,"V. vulnificus [5]; Vibrio vulnificus, agent dissolved in pH = 10 solution, read-out: MBC",3.9 µg/mL
same,MIC,"V. vulnificus [5]; Vibrio vulnificus, agent dissolved in pH = 10 solution, read-out: MIC",3.9 µg/mL
same,MBC,"V. vulnificus [5]; Vibrio vulnificus, agent dissolved in pH = 12 solution, read-out: MBC",15.6 µg/mL
same,MIC,"V. vulnificus [5]; Vibrio vulnificus, agent dissolved in pH = 12 solution, read-out: MIC",15.6 µg/mL
same,MBC,"V. vulnificus [5]; Vibrio vulnificus, pH 7, Control of the pH series (pH 7), read-out: MBC",3.9 µg/mL
same,MIC,"V. vulnificus [5]; Vibrio vulnificus, pH 7, Control of the pH series (pH 7), read-out: MIC",3.9 µg/mL
"NC[C@H]1O[C@H](O[C@H]2[C@H](O)[C@@H](O[C@H]3O[C@H](CO)[C@@H](O)[C@H](N)[C@H]3O)[C@H](N)C[C@@H]2N)[C@H](O)[C@@H](O)[C@@H]1O [kanamycin, reference compound]",MIC,V. vulnificus [1],31.2 µg/mL
same,change of the MIC of the antibiotic in combination with TP3 or TP4,V. vulnificus [2],halved
same,MBC,V. vulnificus [3],31.2 µg/mL
same,MBC,V. vulnificus [4]; RT,31.2 µg/mL
same,MIC,V. vulnificus [4]; RT,31.2 µg/mL
same,MBC,V. vulnificus [4]; [10],31.2 µg/mL
same,MIC,V. vulnificus [4]; [10],31.2 µg/mL
same,MBC,V. vulnificus [4]; [7],31.2 µg/mL
same,MIC,V. vulnificus [4]; [7],31.2 µg/mL
same,MBC,V. vulnificus [4]; [8],31.2 µg/mL
same,MIC,V. vulnificus [4]; [8],31.2 µg/mL
same,MBC,V. vulnificus [4]; [9],62.5 µg/mL
same,MIC,V. vulnificus [4]; [9],62.5 µg/mL
same,MBC,V. vulnificus [5]; Control of the pH series (pH 7),31.2 µg/mL
same,MBC,V. vulnificus [5]; [11],31.2 µg/mL
same,MIC,V. vulnificus [5]; [11],31.2 µg/mL
same,MBC,V. vulnificus [5]; [12],31.2 µg/mL
same,MIC,V. vulnificus [5]; [12],31.2 µg/mL
same,MBC,V. vulnificus [5]; [13],31.2 µg/mL
same,MIC,V. vulnificus [5]; [13],31.2 µg/mL
same,MBC,V. vulnificus [5]; [14],31.2 µg/mL
same,MIC,V. vulnificus [5]; [14],31.2 µg/mL
same,MBC,V. vulnificus [5]; [15],250 µg/mL
same,MIC,V. vulnificus [5]; [15],250 µg/mL
same,concentration that increased NPN fluorescence,V. vulnificus [6],100 µg/mL
